pIC50: −log10 of the molar value.
Key:
CB1 receptor = molecular target: T1, CB1 receptor (Mus musculus, UniProt P47746); test: Mouse electrically-stimulated isolated vas deferens bioassay (MVD); format: cell-based; conditions: decrease of electrically evoked twitch force, read-out: CB1 (MVD) % inh at 1.0 μM
T1 construct: Mouse vasa deferentia were dissected with capsular connective tissue intact and set up in 20 ml organ baths; from tissue; host or cells: mouse (Swiss white) isolated vas deferens
Method: Functional activity of the compounds was assayed using the mouse electrically-stimulated vas deferens bioassay, a measure of CB1 receptor function (24,25). […] CB2 functionality may be investigated using assays known to those skilled in the art; for example those described in U.S. Pat. No. 6,013,648.
Swiss white mice (35-40 g) were killed by exposure to 80% CO2 in O2 and exsanguination. Mouse vasa deferentia were dissected with capsular connective tissue intact and set up in 20 ml organ baths at 37° C. in Mg^2+-free physiological salt solution. The upper (epididymal) end was attached to an isometric force transducer (Grass FTO3C) and the lower (prostatic) end tied to a fixed support between two parallel platinum field electrodes (5 mm apart, 5 mm long). The tissue was initially stretched by 0.5 g force and allowed to equilibrate 10 min. The tissues were stimulated (Grass S88 stimulator) to contract using trains of electrical field stimulation of 3 pulses (4 Hz), 0.5 ms duration, 100 V (80% maximal voltage) every 20 s for 10 min. This electrical stimulation period was applied before and after both antagonist and agonist addition. Output from the transducer amplifier was recorded on a flat bed recorder (Gould BS 272, Cleveland, Ohio, U.S.A.). All drugs were dissolved in dimethyl sulfoxide (DMSO; Sigma, St Louis, Mo., U.S.A.) and allowed to equilibrate with the tissue for 30 min before the responses to field stimulation were assessed. Drug effects were measured as the percentage decrease of the pre-drug twitch force.

CB2 receptor = molecular target: T2, CB2 receptor (Rattus norvegicus, UniProt Q9QZN9); test: Radioligand binding assay, rat spleen membranes
T2 sequence (Q9QZN9 1-343 limits assumed): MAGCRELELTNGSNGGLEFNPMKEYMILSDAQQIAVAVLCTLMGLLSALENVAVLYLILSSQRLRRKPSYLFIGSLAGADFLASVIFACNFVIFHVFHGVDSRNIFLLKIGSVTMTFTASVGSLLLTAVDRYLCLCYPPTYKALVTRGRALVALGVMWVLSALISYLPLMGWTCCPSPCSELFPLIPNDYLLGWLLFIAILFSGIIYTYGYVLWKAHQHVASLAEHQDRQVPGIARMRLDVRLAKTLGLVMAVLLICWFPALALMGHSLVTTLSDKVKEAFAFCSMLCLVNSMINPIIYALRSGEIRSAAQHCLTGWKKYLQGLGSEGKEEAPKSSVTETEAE
Method: The affinity of compounds at cannabinoid receptors is routinely assessed using ligand binding assays known to those skilled in the art. Radioligand binding assays were conducted using rat cerebellum or rat spleen. The cerebellum of the rat is known to express predominantly, if not exclusively, the CB1 receptor subtype (20,21). Thus, binding constants obtained from these studies are characterised by a single affinity value, as only one receptor type is labelled. […] In contrast, biphasic binding curves in the spleen characterised by two affinity constants represent the profile of compounds showing selectivity for one receptor subtype over another. In order to determine the order of selectivity, the high and low affinity values obtained for these compounds in the spleen binding assays were compared to the single affinity estimates obtained for the cerebellum (CB1) assays.
Sprague Dawley rats (200-300 g) were killed by gassing with 80% CO2 in O2 and decapitation and the spleen excised rapidly and placed in ice-cold Tris-HCl buffer (Tris 50 mM, MgCl2 3 mM, EGTA 0.2 mM, pH 7.4). The spleen was weighed and diced using a scalpel before homogenisation in 10 volumes of Tris-HCl buffer. The homogenate was then made up to 20 volumes and centrifuged (12,600 g, 5 min, 4° C.), the supernatant was retained and centrifuged (23,800 g, 20 min, 4° C.). The pellet was resuspended in 10 volumes of buffer and assayed for protein content using the method of Bradford (Bradford, 1976) with BSA as the standard. The homogenate was then recentrifuged and the final pellet resuspended in Tris-HCl buffer at a protein concentration of 5 mg/ml and stored in 500 μl aliquots at −80° C. until used for the binding assay.
Ligand binding assays were performed in polypropylene tubes in a total volume of 1 ml containing Tris-HCl buffer, a final concentration of 1 mg/ml BSA, and varying concentrations of drugs. Tubes contained 30 μg of membrane protein and incubation was started by the addition of 100 μl of either 0.5 nM [^3H]SR141716A or 0.2 nM [^3H]WIN 55,212-2. Experiments were carried out in triplicate at 30° C. for 90 min with non-specific binding being defined as radioligand binding in the presence of 1 μM unlabelled WIN 55,212-2. Incubations were terminated by rapid filtration with a M-24 Cell Harvester (Brandel; Gaithersburg, Md., U.S.A.) using ice-cold Tris-HCl buffer containing 0.5 mg/ml BSA. Filters (Wattman GF/B) were soaked for 2 h prior to filtering in a solution of Tris-HCl buffer containing 3 mg/ml BSA and 0.5% w/w polyethyleneimine (PEI). Filters were left to dry thoroughly before placement into scintillation vials with 5 ml of scintillation cocktail (Ultima Gold LSC-cocktail; Packard Bioscience, Meriden, Conn., U.S.A.) being added. Vials were left to stand overnight before the radioactivity was determined using a Model 1409 DSA Liquid Scintillation counter (EG&E Wallac, Gaithersburg, Md., U.S.A.).
The resulting radioligand binding curves were analyzed by nonlinear regression using the program PRISM 3.0 (GraphPad Software, San Diego, Calif.) in order to derive ligand affinity estimates for the cannabinoid receptor(s).

Sprague-Dawley rats = test: Neuropathic pain testing: L5/L6 spinal nerve ligation, tactile allodynia with von Frey hairs; format: in vivo; conditions: intraperitoneal injection, propylene glycol vehicle, rat
Excerpt: Production of a unilateral hind limb neuropathy in male Sprague-Dawley rats was achieved using the technique of L5 and L6 spinal nerve ligation, according to the method of Kim and Chung (1992). Animals were given one week to recover from surgery prior to testing for the development of […] pain.
The testing procedure involved the determination of tactile allodynia using von Frey hairs, which were applied sequentially to the plantar surface of the rat paw starting with 2 g of force and proceeding upwards to a maximum of 15.1 g of force or downwards to a minimum of 0.4 g force. The 15.1 g force was used to define the maximum possible effect (MPE) for this test of neuropathic pain. Once paw withdrawal occurred, the 50% withdrawal threshold was determined using the “up-down” method as published by Dixon (1980). Both hind paws were tested. Response to therapy as measured by tactile allodynia threshold was calculated using the percentage maximum possible effect (% MPE) according to the following equation: % MPE=100×([Measured value]−[Pre-treatment value])/([MPE]−[Pre-treatment value]).
Drugs were dissolved in a propylene glycol vehicle and administered via intraperitoneal injection.

T1 sequence (P47746 whole entry): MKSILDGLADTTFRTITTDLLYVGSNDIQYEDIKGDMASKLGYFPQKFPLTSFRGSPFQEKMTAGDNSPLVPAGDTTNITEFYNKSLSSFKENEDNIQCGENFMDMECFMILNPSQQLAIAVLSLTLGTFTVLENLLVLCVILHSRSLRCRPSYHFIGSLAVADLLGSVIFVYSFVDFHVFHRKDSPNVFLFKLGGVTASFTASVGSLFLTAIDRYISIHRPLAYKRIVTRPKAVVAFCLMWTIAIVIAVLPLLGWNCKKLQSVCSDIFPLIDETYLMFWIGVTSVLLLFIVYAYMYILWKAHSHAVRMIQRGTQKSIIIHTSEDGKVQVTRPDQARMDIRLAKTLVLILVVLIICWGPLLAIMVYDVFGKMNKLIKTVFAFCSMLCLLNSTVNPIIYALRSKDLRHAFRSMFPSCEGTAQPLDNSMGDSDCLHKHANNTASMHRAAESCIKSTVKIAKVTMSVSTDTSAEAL

For `c1ccc(Cc2noc(-c3cn(CCN4CCCC4)c4ccccc34)n2)cc1` [Compound 1, 3-(3-Benzyl-[1,2,4]-oxadiazol-5-yl)-1-[2-(pyrrolidin-1-yl)ethyl]-1H-indole], the inhibition at 1 µM (CB1 receptor) was 80%, the pIC50 (CB2 receptor) was 5.80 and the “antinociceptive effect in model of neuropathic pain” value (Sprague-Dawley rats) was “significant antinociceptive effect”.
